From patent US11926845B2, “Cell culture method and automatic cell culture apparatus” (Hitachi, Ltd., priority 2020, dated 2024)

Tests used:
[1] = test system: human iPS cells (201B7 strain); assay: hCG secretion into culture supernatant (ELISA) of 201B7 strain cultured on coated planar mesh; type: cell-based
Protocol: In the present example, the human iPS cells (201B7 strain) were cultured by using a culture substrate in which the planar mesh made of nickel was coated with parylene or Au, and an effect of the ROCK inhibitor on cell differentiation was investigated.
A cell culture substrate was prepared in the same procedure as in the first example. The i-Matrix (Nippi Inc.) adjusted to a concentration of 50 ng/μl as a scaffold material of cells was added so as to cover the mesh and the mixture was treated at 4° C. for 3 days. Thereafter, after i-Matrix was removed, and the washing was performed with an Essential 8 medium (GIBCO Co.), the human iPS cells (201B7 strain) was adjusted in the Essential 8 medium so as to be 1×10^5/ml, and an iPS cell suspension containing 10 μM of the ROCK inhibitor (Y-27632, Wako Pure Chemical Co.) was added on the mesh in the same manner as the scaffold material, and the cells were incubated at 37° C. in the cell culture apparatus adjusted to the CO2 concentration of 5%.
After 24 hours from seeding, a total amount of iPS cell suspension was removed and replaced with a new Essential 8 medium, so that the ROCK inhibitor was completely removed once. Then, every 4 days, half the amount of culture supernatant was recovered, and the amount of culture supernatant was maintained by adding a new Essential 8 medium in an amount equal to a removed amount. The ROCK inhibitor (Y-27632, Wako Pure Chemical Co.) was added to a part of the medium of the cell culture substrate on which the 201B7 strain is seeded from Day 9 of culturing or Day 13 of the culturing so that the final concentration of the ROCK inhibitor was 20 μM, and the culturing was performed for 3 weeks.
A secretion amount of hCG, which is one of trophoblast differentiation markers, was quantified by using the recovered culture supernatant. For the quantification, a value of OD450 was detected with an absorbance plate reader (Corona Electric Co. Ltd.) by using a Human hCG ELISA Kit (Abcam Co.). Details of an ELISA reaction and a measurement method followed a manual of a kit.

[2] = test system: 253G1 strain; assay: hCG secretion into culture supernatant (ELISA) of 253G1 strain cultured on coated planar mesh; type: cell-based, human; settings: for secretion amount of hCG, increase as compared with the case where the ROCK inhibitor was not added / secretion amount of hCG, course after the increase: 253G1 strain; for secretion amount of hCG, course after the increase: after Day 17
Protocol: Preparation of the cell culture substrate and seeding of the iPS cells were carried out in the same manner as in the second example. After 24 hours from seeding, a total amount of iPS cell suspension was removed and replaced with a new Essential 8 medium, so that the ROCK inhibitor was completely removed once. Then, every 4 days, half the amount of the culture supernatant was recovered, and the amount of culture supernatant was maintained by adding a new Essential 8 medium in an amount equal to a removed amount. The ROCK inhibitor (Y-27632, Wako Pure Chemical Co.) was added to a part of the medium of the cell culture substrate on which the 253G1 strain is seeded from Day 9 of culturing or Day 13 of the culturing so that a final concentration was 20 μM, and the culturing was performed for 3 weeks.
The secretion amount of hCG, which is one of trophoblast differentiation markers, was quantified by using the recovered culture supernatant. For the quantification, the value of OD450 was detected by an absorbance plate reader (Corona Electric Co.) by using a Human hCG ELISA Kit (Abcam Co.). Details of an ELISA reaction and a measurement method followed a manual of a kit.

C[C@@H](N)[C@H]1CC[C@H](C(=O)Nc2ccncc2)CC1 [ROCK inhibitor, Y-27632]
differentiation into trophoblast ([1]; 201B7 strain on planar mesh coated with parylene or Au, re-addition of the ROCK inhibitor): promoted | secretion amount of hCG, increase as compared with the case where the ROCK inhibitor was not added ([1]; 201B7 strain, mesh coated with Au, 20 μM added from Day 9 of culturing, on Day 17): about twice | secretion amount of hCG, increase as compared with the case where the ROCK inhibitor was not added ([1]; 201B7 strain, mesh coated with Au, 20 μM added from Day 9 of culturing, on Day 21): four times | secretion amount of hCG, course after the increase ([1]; 201B7 strain, mesh coated with Au, 20 μM added from Day 13 of culturing, after Day 17): the secretion amount was maintained thereafter | secretion amount of hCG, increase as compared with the case where the ROCK inhibitor was not added ([1]; 201B7 strain, mesh coated with Au, 20 μM added from Day 13 of culturing, on Day 17): about three times | secretion amount of hCG, course after the increase ([1]; 201B7 strain, mesh coated with parylene, 20 μM added from Day 9 of culturing, after Day 13): the secretion amount was maintained thereafter | secretion amount of hCG, increase as compared with a case where the ROCK inhibitor was not added ([1]; 201B7 strain, mesh coated with parylene, 20 μM added from Day 9 of culturing, on Day 13): about twice | secretion amount of hCG, increase as compared with the case where the ROCK inhibitor was not added ([1]; 201B7 strain, mesh coated with parylene, 20 μM added from Day 13 of culturing, on Day 17): about twice | secretion amount of hCG, increase as compared with the case where the ROCK inhibitor was not added ([1]; 201B7 strain, mesh coated with parylene, 20 μM added from Day 13 of culturing, on Day 21): about three times | differentiation into trophoblast cells ([2]; 253G1 strain on planar mesh coated with parylene or Au, addition of the ROCK inhibitor): promoted | secretion amount of hCG, increase as compared with the case where the ROCK inhibitor was not added ([2]; mesh coated with Au, 20 μM added from Day 9 of culturing, on Day 17): about twice | secretion amount of hCG, increase as compared with the case where the ROCK inhibitor was not added ([2]; mesh coated with Au, 20 μM added from Day 9 of culturing, on Day 21): about three times | secretion amount of hCG, course after the increase ([2]; mesh coated with Au, 20 μM added from Day 13 of culturing): the secretion amount was maintained thereafter | secretion amount of hCG, increase as compared with the case where the ROCK inhibitor was not added ([2]; mesh coated with Au, 20 μM added from Day 13 of culturing, on Day 17): five times | secretion amount of hCG, course after the increase ([2]; mesh coated with parylene, 20 μM added from Day 9 of culturing): the secretion amount was maintained thereafter | secretion amount of hCG, increase as compared with the case where the ROCK inhibitor was not added ([2]; mesh coated with parylene, 20 μM added from Day 9 of culturing, on Day 17): about ten times | secretion amount of hCG, increase as compared with the case where the ROCK inhibitor was not added ([2]; mesh coated with parylene, 20 μM added from Day 13 of culturing, on Day 21): three times
